pEC50: −log10 of the molar value.
Test system: NanoLuc-PEST expressing L. mexicana axenic amastigotes
Assay: microbe, parasite or virus in culture
Assay type: cell-based
Details: for Relative Bioluminescence (%) / viability at 2 µM / viability at 10 µM: 72 hours, relative to DMSO only control, n = 4; for pEC50: read-out: EC50, Axenic Amastigotes; for viability at 2 µM / viability at 10 µM: Leishmania mexicana, read-out: Relative Bioluminescence (%)
[1] = hit compounds from the axenic amastigote screen, S3 Table

| SMILES | Relative Bioluminescence (%) (2 µM compound) | Relative Bioluminescence (%) (10 µM compound) | pEC50 [1] | viability at 2 µM (2 µM compound) [%] | viability at 10 µM (10 µM compound) [%] | EC50, Axenic Amastigotes [1] |
| --- | --- | --- | --- | --- | --- | --- |
| COc1cncc(-c2cncc(N3CCN(c4ccncc4)CC3)n2)c1 [MMV085071] | 93.07 | 82.11 | – | – | – | – |
| Cc1cccc(Cn2ccc(NC(=O)c3ccc4c(c3)OCO4)n2)c1 [MMV676386] | 127.03 | 120.21 | – | – | – | – |
| Cc1cc(C)cc(COc2ccc3c(C)c(CCC(=O)O)c(=O)oc3c2C)c1 [MMV676476] | 1.36 | -0.27 | 6.24 | – | – | – |
| CCc1ccc([C@@H]2C[C@H](C(F)(F)F)n3ncc(C(=O)NCc4ccc(OC)cc4)c3N2)cc1 [MMV687180] | 49.23 | 1.44 | – | – | – | – |
| COC(=O)c1cccc2oc(-c3cccc(OC)c3NC(=O)c3cc(-c4ccccc4)on3)nc12 [MMV676186] | 83.95 | 21.54 | – | – | – | – |
| COc1ccc(C2CC(c3cccs3)=NN2C(=O)c2ccco2)cc1OC (stereo not shown) [MMV019234] | 106.08 | 39.61 | – | – | – | – |
| c1coc(CNc2nc(N3CCCCC3)nc3ccccc23)c1 [MMV676401] | 91.23 | 75.18 | – | – | – | – |
| O=C(NCc1cc(Cl)cc(Cl)c1)c1c(C(F)(F)F)nc2ccccn12 [MMV687699] | 81.42 | 62.05 | – | – | – | – |
| COc1cc(CN2CCC3(C=Cc4ccccc43)CC2)cc2c1OCO2 [MMV688941] | 78.23 | 74.74 | – | – | – | – |
| Cc1ccccc1C(=O)N1NC(=Nc2ccccc2)SC1(C)C [MMV688771] | 70.08 | 37.89 | – | – | – | – |
| Cc1nc2ccccn2c1C(=O)NCc1ccc(Cl)cc1 [MMV012074] | 98.27 | 123.86 | – | – | – | – |
| Clc1cccc(C(c2ccc(CN3CCNCC3)cc2)n2ccnc2)c1 (stereo not shown) [MMV663250] | 96.52 | 69.77 | – | – | – | – |
| C[C@H](C(N)=O)N1CCCC[C@@H]1c1ccc(OCc2cccc(F)c2)cc1 [MMV676270] | 41.26 | 18.00 | – | – | – | – |
| CC(C)(C)c1cc(C(=O)N2CCN(c3nccnc3C#N)CC2)n(Cc2ccccc2)n1 [MMV023949] | 80.37 | 52.45 | – | – | – | – |
| CC(C)=CCC/C(C)=C\CNCCNC1C2CC3CC(C2)CC1C3 (stereo not shown) [MMV687273] | 68.48 | 81.32 | – | – | – | – |
| CCC(C)NC(=O)c1ccc(NC(=O)C2(c3ccccc3)CCCC2)cc1 (stereo not shown) [MMV146306] | 97.77 | 40.43 | – | – | – | – |
| O=C(Cn1ccnc1[N+](=O)[O-])NCc1ccccc1 [MMV688773, Benznidazole, reference compound] | – | – | – | 110 | 132 | – |
| Clc1cccc(CO[C@H]2CCc3ccccc3[C@@H]2n2ccnn2)c1 [MMV676159] | 101.47 | 98.27 | – | – | – | – |
| CC(C(=O)Nc1ccc2oc(-c3ccncc3)nc2c1)c1ccccc1 (stereo not shown) [MMV688471] | 59.14 | 49.33 | – | – | – | – |
| CCCCc1ccc(C(=O)Nc2nccc3ccccc23)nc1 [MMV687254] | 63.72 | -0.07 | – | – | – | – |
| CC(=O)N1CCN(c2ccc(Oc3ccc(Cl)cc3O)cc2)CC1 [MMV688330] | 97.96 | 79.07 | – | – | – | – |
| O=[N+]([O-])c1cn2c(n1)OC[C@@H](OCc1ccc(OC(F)(F)F)cc1)C2 [MMV688755] | 26.38 | 0.45 | – | – | – | – |
| COC(=O)C1=C(C)NC(C)=C(C(=O)OC(C)C)C1c1cccc2nonc12 (stereo not shown) [MMV001493, Isradipine, reference compound] | – | – | – | 130 | 89.6 | – |
| Nc1c2c(nc3sc4c(c13)CCCC4)CCCC2 [MMV676588] | 70.58 | 69.13 | – | – | – | – |
| O=C(Nc1nnc(-c2ccc(Cl)s2)o1)c1ccc(Cl)s1 [MMV676501] | -0.04 | -0.69 | 6.52 | – | – | – |

| SMILES | Relative Bioluminescence (%) (2 µM compound) | Relative Bioluminescence (%) (10 µM compound) | pEC50 [1] | viability at 2 µM (2 µM compound) [%] | viability at 10 µM (10 µM compound) [%] | EC50, Axenic Amastigotes [1] |
| --- | --- | --- | --- | --- | --- | --- |
| CN1CCN(c2cc(-c3ccc(F)cc3)nc(-c3ccncc3)n2)CC1 [MMV688888] | 78.28 | 89.99 | – | – | – | – |
| Cc1ccc2cc(C3NC(=O)c4ccccc4N3)c(Cl)nc2c1 (stereo not shown) [MMV019807] | 69.92 | 111.93 | – | – | – | – |
| COC(=O)Nc1nc2ccc(C(=O)c3ccccc3)cc2[nH]1 [MMV003152, Mebendazole, reference compound] | – | – | – | 0.9 | -0.49 | could not be resolved |
| O=C(Nc1cccnc1)c1c(O)c2cccc3c2n(c1=O)CC3 [MMV676395] | 63.89 | 0.76 | – | – | – | – |
| Cc1cc2nc(NC(=O)C(C)(C)C)nc(Cl)c2n1Cc1ccc(Cl)cc1 [MMV688704] | 83.23 | 53.57 | – | – | – | – |
| CCOC(=O)c1noc(N)c1-c1ccccc1 [MMV1236379] | 77.18 | 52.39 | – | – | – | – |
| CCOc1ccccc1C(=O)Nc1cccc(-c2nc3ncccn3c2C)c1 [MMV019790] | 85.04 | 56.75 | – | – | – | – |
| CCc1cc(=O)n(C)c(SC(C)C(=O)Nc2ccc(F)cc2)n1 (stereo not shown) [MMV688980] | 76.34 | 48.08 | – | – | – | – |
| Cn1c(=O)c2c(S(C)(=O)=O)snc2n(C)c1=O [MMV687251] | -4.37 | -0.24 | 6.32 | – | – | – |
| c1ccc(-c2[nH]c3ccccc3c2C(c2ccccn2)N2CCCC2)cc1 (stereo not shown) [MMV688762] | 73.33 | 84.34 | – | – | – | – |
| c1cncc(NCc2ccc(-c3cc4ccncc4cc3OC3CCNCC3)s2)c1 [MMV023969] | 76.39 | 74.16 | – | – | – | – |
| O=C(Nc1c(O)cccc1-c1nc2c(C(=O)O)cccc2o1)c1cc(-c2ccccc2)on1 [MMV676008] | 79.00 | -1.15 | – | – | – | – |
| c1ccc(Oc2ccc(-c3cncc(-c4ccc5[nH]ccc5c4)n3)cc2)cc1 [MMV688178] | 91.24 | 94.95 | – | – | – | – |
| CCc1ccc(C(NCc2nc(N)nc(N(C)C)n2)C(C)C)cc1 (stereo not shown) [MMV1019989] | 59.90 | 45.92 | – | – | – | – |
| CN1CCC(NCc2cccc(-c3ccc(S(=O)(=O)NCc4ccccc4)cc3)c2)CC1 [MMV022029] | 99.81 | 101.70 | – | – | – | – |
| Cc1ccc2c(c1C)NC(=O)C21NN=C(c2ccccc2)S1 (stereo not shown) [MMV019189] | -1.73 | -1.42 | 6.49 | – | – | – |
| CC(C)(CN)c1nc(-c2ccc(Cl)c(O)c2)c(-c2ccnc(N)n2)[nH]1 [MMV030734] | 80.21 | 87.08 | – | – | – | – |
| Cc1cc(NC(=O)c2ccc(S(=O)(=O)N(Cc3ccccc3)C(C)C)cc2)no1 [MMV007133] | 102.77 | 71.20 | – | – | – | – |
| N#Cc1nc(-c2ccccc2)oc1S(=O)(=O)c1ccc(Cl)cc1 [MMV676412] | 0.46 | -0.09 | 6.59 | – | – | – |
| NS(=O)(=O)c1cccc(-c2ccc3ncc(N4CCOCC4)nc3c2)c1 [MMV023860] | 79.77 | 74.37 | – | – | – | – |
| CC(C)(C)n1nc(Cc2cccc3ccccc23)c2c(N)ncnc21 [MMV676599] | 80.19 | 31.83 | – | – | – | – |
| COc1nc2ccc(Br)cc2cc1[C@@H](c1ccccc1)[C@@](O)(CCN(C)C)c1cccc2ccccc12 [MMV689758, Bedaquiline, reference compound] | – | – | – | 94.9 | 45.4 | – |
| COc1cccc(OC)c1C(=O)Nc1ccc(Cl)c(-c2nc3ccccc3s2)c1 [MMV676472] | 106.46 | 93.04 | – | – | – | – |
| CC(C)(C)C(=O)N(CCCCCCN1C[C@H](O)[C@@H](O)[C@H](O)[C@H]1CO)C1CCCCCC1 [MMV688543] | 65.10 | 39.32 | – | – | – | – |
| Cc1ccc(S(=O)(=O)N2CCN(C(=O)c3cc(-c4ccccc4)n[nH]3)CC2)cc1 [MMV019742] | 69.14 | 102.67 | – | – | – | – |

Reference: article PMC6057649, “Development of NanoLuc-PEST expressing Leishmania mexicana as a new drug discovery tool for axenic- and intramacrophage-based assays” (PLoS Neglected Tropical Diseases, 2018)
